# Laboratory results reported in PubChem BioAssay (NCI).
#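 Each compound was tested at five concentrations against cells in 96-well plates for 48 hours. TGI: total growth inhibition.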
# Assays:
# Test in all cases: NCI-60 cell line screen, 48 h
# [1] = test system: MDA-MB-231 breast
# [2] = test system: SNB-19 CNS
# [3] = test system: HOP-62 NSCLC
# [4] = test system: A549 NSCLC
# [5] = test system: SW-620 colon
# [6] = test system: RPMI-8226 leukemia
# [7] = test system: M14 melanoma
# [8] = test system: SN12C renal
# [9] = test system: SF-539 CNS
# [10] = test system: COLO 205 colon
# [11] = test system: BT-549 breast
# [12] = test system: NCI-H226 lung
# [13] = test system: LOX IMVI melanoma
# [14] = test system: DU-145 prostate
# [15] = test system: HCT-116 colon
# [16] = test system: OVCAR-8 ovarian
# [17] = test system: OVCAR-3 ovarian
# [18] = test system: SF-268 CNS
# [19] = test system: NCI-H460 lung
# [20] = test system: ACHN renal
# [21] = test system: UACC-62 melanoma
# [22] = test system: MDA-MB-435
# [23] = test system: HT29 colon
# [24] = test system: OVCAR-5 ovarian
# [25] = test system: MDA-N
# [26] = test system: EKVX NSCLC
# [27] = test system: SK-MEL-5 melanoma
# [28] = test system: SK-MEL-2 melanoma
# [29] = test system: SF-295 CNS
# [30] = test system: HCC-2998 colon
# [31] = test system: UACC-257 melanoma
# [32] = test system: U251 CNS
# [33] = test system: CCRF-CEM leukemia
# [34] = test system: HCT-15 colon
# [35] = test system: SNB-75 CNS
# [36] = test system: NCI/ADR-RES ovarian
# [37] = test system: 786-0 renal
# [38] = test system: MCF7 breast
# [39] = test system: HOP-92 NSCLC
# [40] = test system: TK-10 renal
# [41] = test system: HS 578T breast
# [42] = test system: UO-31 renal
# [43] = test system: IGROV1 ovarian
# [44] = test system: CAKI-1 renal
# [45] = test system: OVCAR-4 ovarian
# [46] = test system: T-47D breast
# [47] = test system: HL-60(TB) leukemia
# [48] = test system: NCI-H23 lung
# [49] = test system: PC-3 prostate
# [50] = test system: SK-MEL-28 melanoma
# [51] = test system: MALME-3M melanoma
# [52] = test system: KM12 colon
# [53] = test system: NCI-H522 lung
# [54] = test system: MOLT-4 leukemia
# [55] = test system: SK-OV-3 ovarian
# [56] = test system: K-562 leukemia
# [57] = test system: A498 renal
# [58] = test system: SR leukemia
# [59] = test system: RXF 393 renal
compound,measurement,setting,value
c1ccc2c(c1)SC1=C(SC(=C3SC4=C(S3)Sc3ccccc3S4)S1)S2,TGI,[1],> 100 µM
same,TGI,[2],> 100 µM
same,TGI,[3],> 100 µM
same,TGI,[4],> 100 µM
same,TGI,[5],> 100 µM
same,TGI,[6],> 100 µM
same,TGI,[7],> 100 µM
same,TGI,[8],> 100 µM
same,TGI,[9],> 100 µM
same,TGI,[10],> 100 µM
same,TGI,[11],> 100 µM
same,TGI,[12],> 100 µM
same,TGI,[13],> 100 µM
same,TGI,[14],> 100 µM
same,TGI,[15],> 100 µM
same,TGI,[16],> 100 µM
same,TGI,[17],> 100 µM
same,TGI,[18],> 100 µM
same,TGI,[19],> 100 µM
same,TGI,[20],> 100 µM
same,TGI,[21],> 100 µM
same,TGI,[22],> 100 µM
same,TGI,[23],> 100 µM
same,TGI,[24],> 100 µM
same,TGI,[25],> 100 µM
same,TGI,[26],> 100 µM
same,TGI,[27],> 100 µM
same,TGI,[28],> 100 µM
same,TGI,[29],> 100 µM
same,TGI,[30],> 100 µM
same,TGI,[31],> 100 µM
same,TGI,[32],> 100 µM
same,TGI,[33],> 100 µM
same,TGI,[34],> 100 µM
same,TGI,[35],> 100 µM
same,TGI,[36],> 100 µM
same,TGI,[37],> 100 µM
same,TGI,[38],> 100 µM
same,TGI,[39],> 100 µM
same,TGI,[40],> 100 µM
same,TGI,[41],> 100 µM
same,TGI,[42],> 100 µM
same,TGI,[43],> 100 µM
same,TGI,[44],> 100 µM
same,TGI,[45],> 100 µM
same,TGI,[46],> 100 µM
same,TGI,[47],> 100 µM
same,TGI,[48],> 100 µM
same,TGI,[49],> 100 µM
same,TGI,[50],> 100 µM
same,TGI,[51],> 100 µM
same,TGI,[52],> 100 µM
same,TGI,[53],> 100 µM
same,TGI,[54],> 100 µM
Cc1cnc(-n2c(C)nc3cc(Cl)ccc3c2=O)s1,TGI,[1],> 100 µM
same,TGI,[55],> 100 µM
same,TGI,[2],> 100 µM
same,TGI,[3],> 100 µM
same,TGI,[4],> 100 µM
same,TGI,[5],> 100 µM
same,TGI,[7],> 100 µM
same,TGI,[8],> 100 µM
same,TGI,[9],55.3 µM
same,TGI,[10],40.2 µM
same,TGI,[11],> 100 µM
same,TGI,[12],93.8 µM
same,TGI,[13],> 100 µM
same,TGI,[14],66.4 µM
same,TGI,[15],65.6 µM
same,TGI,[16],> 100 µM
same,TGI,[17],> 100 µM
same,TGI,[18],> 100 µM
same,TGI,[19],> 100 µM
same,TGI,[20],90.9 µM
same,TGI,[21],68.1 µM
same,TGI,[22],> 100 µM
same,TGI,[23],> 100 µM
same,TGI,[24],> 100 µM
same,TGI,[25],56.8 µM
same,TGI,[26],35.8 µM
same,TGI,[27],34 µM
same,TGI,[28],> 100 µM
same,TGI,[29],> 100 µM
same,TGI,[56],> 100 µM
same,TGI,[30],96.1 µM
same,TGI,[31],99.6 µM
same,TGI,[32],> 100 µM
same,TGI,[33],> 100 µM
same,TGI,[34],> 100 µM
same,TGI,[57],61.7 µM
same,TGI,[35],70.4 µM
same,TGI,[36],94.5 µM
same,TGI,[37],> 100 µM
same,TGI,[38],56.5 µM
same,TGI,[39],> 100 µM
same,TGI,[40],> 100 µM
same,TGI,[41],> 100 µM
same,TGI,[42],4.13 µM
same,TGI,[43],> 100 µM
same,TGI,[44],> 100 µM
same,TGI,[45],> 100 µM
same,TGI,[46],68.9 µM
same,TGI,[47],> 100 µM
same,TGI,[48],97.7 µM
same,TGI,[49],> 100 µM
same,TGI,[50],> 100 µM
same,TGI,[51],> 100 µM
same,TGI,[52],> 100 µM
same,TGI,[53],92.1 µM
same,TGI,[54],> 100 µM
CC(C)=CCC/C(C)=C/CO,TGI,[1],> 100 µM
same,TGI,[55],> 100 µM
same,TGI,[2],> 100 µM
same,TGI,[3],> 100 µM
same,TGI,[4],> 100 µM
same,TGI,[5],> 100 µM
same,TGI,[6],> 100 µM
same,TGI,[7],> 100 µM
same,TGI,[8],> 100 µM
same,TGI,[9],> 100 µM
same,TGI,[10],> 100 µM
same,TGI,[11],> 100 µM
same,TGI,[12],> 100 µM
same,TGI,[13],> 100 µM
same,TGI,[14],> 100 µM
same,TGI,[15],> 100 µM
same,TGI,[16],> 100 µM
same,TGI,[17],> 100 µM
same,TGI,[18],> 100 µM
same,TGI,[19],> 100 µM
same,TGI,[20],> 100 µM
same,TGI,[21],> 100 µM
same,TGI,[22],> 100 µM
same,TGI,[23],> 100 µM
same,TGI,[24],> 100 µM
same,TGI,[25],> 100 µM
same,TGI,[26],> 100 µM
same,TGI,[27],> 100 µM
same,TGI,[28],> 100 µM
same,TGI,[29],> 100 µM
same,TGI,[56],> 100 µM
same,TGI,[30],> 100 µM
same,TGI,[31],> 100 µM
same,TGI,[32],> 100 µM
same,TGI,[33],> 100 µM
same,TGI,[34],> 100 µM
same,TGI,[57],> 100 µM
same,TGI,[36],> 100 µM
same,TGI,[37],> 100 µM
same,TGI,[38],> 100 µM
same,TGI,[40],> 100 µM
same,TGI,[41],> 100 µM
same,TGI,[42],> 100 µM
same,TGI,[43],> 100 µM
same,TGI,[44],> 100 µM
same,TGI,[45],> 100 µM
same,TGI,[46],> 100 µM
same,TGI,[47],> 100 µM
same,TGI,[48],> 100 µM
same,TGI,[49],> 100 µM
same,TGI,[50],> 100 µM
same,TGI,[51],> 100 µM
same,TGI,[52],> 100 µM
same,TGI,[53],> 100 µM
same,TGI,[54],> 100 µM
COc1cc(OC)c2c(c1-c1ccc(C)cc1)CC(C)N(Cc1ccccc1)[C@H]2C (some centres not stated),TGI,[1],> 100 µM
same,TGI,[55],> 100 µM
same,TGI,[2],> 100 µM
same,TGI,[3],> 100 µM
same,TGI,[4],> 100 µM
same,TGI,[5],> 100 µM
same,TGI,[6],52.3 µM
same,TGI,[7],> 100 µM
same,TGI,[8],> 100 µM
same,TGI,[9],> 100 µM
same,TGI,[10],> 100 µM
same,TGI,[11],> 100 µM
same,TGI,[12],> 100 µM
same,TGI,[13],> 100 µM
same,TGI,[14],> 100 µM
same,TGI,[15],> 100 µM
same,TGI,[16],> 100 µM
same,TGI,[18],> 100 µM
same,TGI,[19],> 100 µM
same,TGI,[20],> 100 µM
same,TGI,[21],> 100 µM
same,TGI,[22],> 100 µM
same,TGI,[23],69.7 µM
same,TGI,[25],> 100 µM
same,TGI,[26],> 100 µM
same,TGI,[27],51.5 µM
same,TGI,[29],> 100 µM
same,TGI,[56],> 100 µM
same,TGI,[30],> 100 µM
same,TGI,[31],68.5 µM
same,TGI,[33],> 100 µM
same,TGI,[34],> 100 µM
same,TGI,[57],> 100 µM
same,TGI,[35],> 100 µM
same,TGI,[37],> 100 µM
same,TGI,[38],> 100 µM
same,TGI,[58],> 100 µM
same,TGI,[40],> 100 µM
same,TGI,[41],67.3 µM
same,TGI,[42],> 100 µM
same,TGI,[43],> 100 µM
same,TGI,[44],> 100 µM
same,TGI,[46],> 100 µM
same,TGI,[47],43.4 µM
same,TGI,[48],> 100 µM
same,TGI,[49],> 100 µM
same,TGI,[50],> 100 µM
same,TGI,[51],53.2 µM
same,TGI,[52],> 100 µM
same,TGI,[53],72.8 µM
same,TGI,[54],> 100 µM
O=C1C(Cl)=C(Cl)C(=O)C2=C1C1c3ccccc3C2c2ccccc21,TGI,[1],65.2 µM
same,TGI,[55],> 100 µM
same,TGI,[2],> 100 µM
same,TGI,[3],59.4 µM
same,TGI,[4],> 100 µM
same,TGI,[5],59.5 µM
same,TGI,[6],53.5 µM
same,TGI,[7],> 100 µM
same,TGI,[8],> 100 µM
same,TGI,[9],65.9 µM
same,TGI,[10],61.4 µM
same,TGI,[11],> 100 µM
same,TGI,[12],> 100 µM
same,TGI,[59],75.2 µM
same,TGI,[14],> 100 µM
same,TGI,[15],> 100 µM
same,TGI,[16],> 100 µM
same,TGI,[17],> 100 µM
same,TGI,[18],> 100 µM
same,TGI,[19],99.2 µM
same,TGI,[20],> 100 µM
same,TGI,[21],79.9 µM
same,TGI,[22],> 100 µM
same,TGI,[23],> 100 µM
same,TGI,[24],> 100 µM
same,TGI,[25],> 100 µM
same,TGI,[26],> 100 µM
same,TGI,[27],> 100 µM
same,TGI,[28],> 100 µM
same,TGI,[29],> 100 µM
same,TGI,[56],> 100 µM
same,TGI,[30],> 100 µM
same,TGI,[31],> 100 µM
same,TGI,[32],45.4 µM
same,TGI,[33],> 100 µM
same,TGI,[34],> 100 µM
same,TGI,[57],> 100 µM
same,TGI,[35],> 100 µM
same,TGI,[36],> 100 µM
same,TGI,[37],47.4 µM
same,TGI,[38],> 100 µM
same,TGI,[39],43.5 µM
same,TGI,[40],> 100 µM
same,TGI,[41],> 100 µM
same,TGI,[42],> 100 µM
same,TGI,[43],> 100 µM
same,TGI,[45],> 100 µM
same,TGI,[46],60.1 µM
same,TGI,[47],52.5 µM
same,TGI,[48],> 100 µM
same,TGI,[49],> 100 µM
same,TGI,[50],> 100 µM
same,TGI,[51],57.7 µM
same,TGI,[52],> 100 µM
same,TGI,[53],33 µM
same,TGI,[54],> 100 µM
